Source: patent US20100298314A1, “NOVEL JNK INHIBITORS” (Schering Corporation, priority 2006, published 2010)
Values joined by “and” are separate entries in the source; they are usually repeats but may differ in a detail not shown here. Equal entries are not always repeated. Where two headings read alike, the source gives them in different places.

Legend:
Type in all cases: biochemical
JNK3 = JNK3 (Homo sapiens, UniProt P53779); assay: JNK3 kinase DELFIA (phosphorylation of biotinylated GST-ATF2); conditions: final ATP 2 uM
JNK3, sequence (P53779 whole entry, species assumed): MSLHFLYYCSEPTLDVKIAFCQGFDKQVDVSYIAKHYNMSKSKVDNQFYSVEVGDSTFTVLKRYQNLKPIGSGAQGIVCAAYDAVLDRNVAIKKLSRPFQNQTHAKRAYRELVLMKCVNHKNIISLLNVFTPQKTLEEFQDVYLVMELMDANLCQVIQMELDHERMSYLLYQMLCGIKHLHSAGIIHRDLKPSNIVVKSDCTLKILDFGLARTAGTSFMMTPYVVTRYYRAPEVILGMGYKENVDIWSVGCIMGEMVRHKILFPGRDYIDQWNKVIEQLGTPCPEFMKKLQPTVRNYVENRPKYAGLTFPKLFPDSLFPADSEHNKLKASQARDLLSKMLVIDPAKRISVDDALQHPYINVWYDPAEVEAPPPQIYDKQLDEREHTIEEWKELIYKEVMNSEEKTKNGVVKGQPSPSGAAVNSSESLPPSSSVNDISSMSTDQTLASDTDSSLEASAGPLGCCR
Description: (§1) Before initiation of kinase reactions, compounds were pre-incubated with the enzyme for 10 minutes. Pre-incubation reactions contained 50 mM HEPES pH 7.3, 10 mM MgCl2, 1 mM DTT, 75 mM NaCl, 1 mM EDTA, 1 mM EGTA, 0.01% CHAPS, 2 nM JNK1, 6 ug/mL biotinylated GST-ATF2, 0.1 mg/ml BSA, 5% DMSO and 0-100 μM compound in a total volume of 40 μL. After a 10 minute room temperature pre-incubation, 10 μL of 35 μM ATP was added to start the reaction (final concentration of ATP=7 uM). Reactions were incubated at room temperature for 30 minutes. A small aliquot (10 uL) was taken and quenched by adding into 190 uL of DELFIA Assay buffer containing 100 mM EDTA. The amount of phosphate transferred to biotinylated GST-ATF2 was measured using the Dissociation Enhanced Lanthanide Fluorescence Immuno-assay (DELFIA) from Perkin Elmer according to manufacturers protocol. Briefly, biotinylated GST-ATF2 was captured on streptavidin coated plates for 1 hour, washed twice, then incubated for 1 hour with a 1:1000 dilution of rabbit-anti-phospho-ATF2 antibody and a 1:3500 dilution of Europium-labeled anti-rabbit secondary antibody. Free antibody was removed with six washes, Europium was dissociated from the antibody, and Europium fluorescence was measured using an excitation wavelength of 340 nm and an emission wavelength of 615 nm. JNK2 and JNK3 kinase reactions were carried out similarly, with the exception that the final concentration of ATP was 4 uM and 2 uM, respectively.

JNK2 = JNK2 (Homo sapiens, UniProt P45984); assay: JNK2 kinase DELFIA (phosphorylation of biotinylated GST-ATF2); conditions: final ATP 4 uM, reported as range for a group
JNK2, sequence (P45984 whole entry, species assumed): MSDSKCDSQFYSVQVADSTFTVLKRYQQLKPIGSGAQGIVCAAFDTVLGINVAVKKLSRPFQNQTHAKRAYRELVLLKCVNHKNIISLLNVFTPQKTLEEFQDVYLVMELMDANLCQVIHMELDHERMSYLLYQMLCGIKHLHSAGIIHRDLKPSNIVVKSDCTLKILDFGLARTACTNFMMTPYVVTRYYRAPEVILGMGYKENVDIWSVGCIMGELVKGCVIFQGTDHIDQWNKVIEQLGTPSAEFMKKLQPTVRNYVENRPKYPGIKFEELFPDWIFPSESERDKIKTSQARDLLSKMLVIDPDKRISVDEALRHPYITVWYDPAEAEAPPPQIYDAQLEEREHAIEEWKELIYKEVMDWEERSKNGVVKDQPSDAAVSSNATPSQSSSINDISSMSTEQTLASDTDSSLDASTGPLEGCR
Description: as §1

JNK1 = JNK1 (Homo sapiens, UniProt P45983); assay: JNK1 kinase DELFIA (phosphorylation of biotinylated GST-ATF2)
JNK1, sequence (P45983 whole entry, species assumed): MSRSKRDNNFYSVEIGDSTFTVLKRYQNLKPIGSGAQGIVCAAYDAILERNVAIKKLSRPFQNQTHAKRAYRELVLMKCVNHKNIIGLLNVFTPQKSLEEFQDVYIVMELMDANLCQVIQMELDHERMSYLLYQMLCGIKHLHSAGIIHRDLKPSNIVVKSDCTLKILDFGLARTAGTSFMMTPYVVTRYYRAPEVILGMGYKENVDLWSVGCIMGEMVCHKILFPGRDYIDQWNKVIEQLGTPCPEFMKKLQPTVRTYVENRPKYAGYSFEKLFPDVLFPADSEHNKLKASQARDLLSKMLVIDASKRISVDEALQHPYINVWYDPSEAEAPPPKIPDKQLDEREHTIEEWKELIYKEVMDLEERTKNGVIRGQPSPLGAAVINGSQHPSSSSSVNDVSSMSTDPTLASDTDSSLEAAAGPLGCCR
Description: as §1

[1] = DELFIA, 2 nM JNK1, final ATP 7 uM, 10 min pre-incubation, reported as range for a group

| IC50 (JNK3) [nM] | IC50 (JNK2) [nM] | IC50 (JNK1; [1]) | IC50 (JNK1; read-out: JNK 1 IC50) [nM] | Compound |
| --- | --- | --- | --- | --- |
| 9 to 50 | 4 to 46 | 6 to 100 nM | 21 | Cc1cccc(-n2cc(CNC(=O)c3cccn4c(C(=O)N[C@H](CO)CC(C)C)cnc34)cn2)c1 [Compound 605] |
| 9 to 50 | 4 to 46 | 6 to 100 nM | – | CC(C)C[C@@H](CO)NC(=O)c1c(-c2ccccc2)nc2c(C(=O)NCc3ccc4nc(N)sc4c3)cccn12 [Compound 451] |
| 9 to 50 | 4 to 46 | 6 to 100 nM and 6 to 20 nM | – | CC(C)C[C@@H](CO)NC(=O)c1c(-c2ccsc2)nc2c(C(=O)NCc3ccc(N4CCOCC4)nc3)cccn12 [Compound 300] |
| 9 to 50 | 4 to 46 | 6 to 100 nM | – | CC(C)(C)[C@@H](CO)NC(=O)c1c(-c2ccsc2)nc2c(C(=O)NCc3ccc4nc(N)sc4c3)cccn12 [Compound 17] |
| 9 to 50 | 4 to 46 | 6 to 100 nM and 6 to 20 nM | – | CC(C)C[C@@H](CO)NC(=O)c1c(-c2ccsc2)nc2c(C(=O)NCc3ccc4nc(N)sc4c3)cccn12 [Compound 14] |
| 209 to 479 | 201 to 666 | – | – | CC(C)C[C@@H](CO)NC(=O)c1c(-c2ccsc2)nc2c(C(=O)NCC3CCN(C(=O)c4cccnc4)CC3)cccn12 [Compound 230] |
| 9 to 50 | 4 to 46 | 6 to 100 nM and 6 to 20 nM | – | CC(C)C[C@@H](CO)NC(=O)c1c(-c2ccsc2)nc2c(C(=O)NCc3ccnc(N4CCCC4)c3)cccn12 [Compound 296] |
| 9 to 50 | 4 to 46 | 6 to 100 nM | – | CC(C)C[C@@H](CO)NC(=O)c1c(-c2cccs2)nc2c(C(=O)NCc3ccc4nc(N)sc4c3)cccn12 [Compound 542] |
| 54 to 98 | 52 to 94 | 6 to 100 nM | – | CC(C)C[C@@H](CO)NC(=O)c1c(-c2ccc(F)cc2)nc2c(C(=O)NCc3ccc4nc(N)sc4c3)cccn12 [Compound 452] |
| 9 to 50 | 52 to 94 | – | – | CC(C)C[C@@H](CO)NC(=O)c1c(-c2ccsc2)nc2c(C(=O)NCc3ccc(-c4ccccn4)s3)cccn12 [Compound 215] |
| 9 to 50 | 4 to 46 | – | – | CNc1nc2ccc(CNC(=O)c3cccn4c(C(=O)N[C@H](CO)CC(C)C)c(-c5ccsc5)nc34)cc2s1 [Compound 155] |
| 118 to 174 | 107 to 173 | – | – | Nc1nc2ccc(CNC(=O)c3cccn4c(C(=O)NCC5(O)CCCCC5)c(-c5ccsc5)nc34)cc2s1 [Compound 15] |
| 16100 | 1070 to 11500 | – | – | Cc1cc(C(=O)NCc2ccc3nc(N)sc3c2)c2nc(-c3ccsc3)c(C(=O)N[C@@H](CO)CC(C)C)n2c1 [Compound 350] |
| 54 to 98 | 201 to 666 | – | – | CC(C)CNC(=O)c1c(-c2ccsc2)nc2c(C(=O)NCc3ccc4nc(N)sc4c3)cccn12 [Compound 38] |
| 209 to 479 | 201 to 666 | – | – | CC[C@@H](CO)NC(=O)c1c(-c2ccsc2)nc2c(C(=O)NCc3ccc(-n4nccc4C(C)C)cc3)cccn12 [Compound 178] |
| 118 to 174 | 1070 to 11500 | – | – | CC[C@H](CO)NC(=O)c1c(-c2ccsc2)nc2c(C(=O)N[C@@H](C)c3ccc(S(C)(=O)=O)cc3)cccn12 [Compound 170] |
| – | – | 6 to 100 nM | – | CSCC[C@@H](CO)NC(=O)c1c(-c2ccsc2)nc2c(C(=O)NCc3ccc(S(C)(=O)=O)cc3)cccn12 [Compound 242] |
| – | – | 6 to 100 nM | – | COC[C@H](CC(C)C)NC(=O)c1c(-c2ccsc2)nc2c(C(=O)NCc3ccc4nc(N)sc4c3)cccn12 [Compound 593] |
| – | – | 6 to 100 nM and 6 to 20 nM | – | CC(C)C[C@@H](CO)NC(=O)c1c(-c2ccsc2)nc2c(C(=O)NCc3ccc4[nH]ncc4c3)cccn12 [Compound 277] |
| – | – | 6 to 100 nM and 6 to 20 nM and 6 to 10 nM | 11 | CC(C)C[C@@H](CO)NC(=O)c1cnc2c(C(=O)NCc3cnn(-c4ccc(S(=O)(=O)N(C)C)c(F)c4)c3)cccn12 [Compound 652] |
| – | – | 6 to 100 nM | – | CC(C)C[C@@H](CO)NC(=O)c1c(-c2ccsc2)nc2c(C(=O)NCc3ccc(N4CCCC4=O)nc3)cccn12 [Compound 324] |
| 54 to 98 | 52 to 94 | – | – | CC(C)C[C@@H](CO)NC(=O)c1c(-c2ccsc2)nc2c(C(=O)NCc3ccc(N4CCCC4=O)cc3)cccn12 [Compound 206] |
| – | – | 6 to 100 nM | – | Nc1nc2ccc(CNC(=O)c3cccn4c(C(=O)N[C@@H](CO)CC5CC5)c(-c5ccsc5)nc34)cc2s1 [Compound 285] |
| – | – | 6 to 100 nM | – | CC(C)[C@@H](CO)NC(=O)c1c(-c2ccsc2)nc2c(C(=O)NCc3ccc4nc(N)sc4c3)cccn12 [Compound 47] |
| – | – | 6 to 100 nM and 6 to 20 nM | – | Cc1nc2cc(CNC(=O)c3cccn4c(C(=O)N[C@H](CO)CC(C)C)c(-c5ccsc5)nc34)ccc2n1C [Compound 139] |
| – | – | 6 to 100 nM | – | Cc1cccc(-n2cc(CNC(=O)c3cccn4c(C(=O)N[C@H](CO)CC(C)C)c(-c5ccccn5)nc34)cn2)c1 [Compound 490] |

| IC50 (JNK3) [nM] | IC50 (JNK2) [nM] | IC50 (JNK1; [1]) | IC50 (JNK1; read-out: JNK 1 IC50) [nM] | Compound |
| --- | --- | --- | --- | --- |
| – | – | 6 to 20 nM and 6 to 10 nM | – | CC(C)C[C@@H](CO)NC(=O)c1cnc2c(C(=O)NCc3cnn(-c4ccc(S(C)(=O)=O)cc4)c3)cccn12 [Compound 629] |
| – | – | 6 to 100 nM | – | Nc1nc2ccc(CNC(=O)c3cccn4c(C(=O)N[C@H](CO)C5CCCCC5)c(-c5ccsc5)nc34)cc2s1 [Compound 69] |
| 54 to 98 | 201 to 666 | – | – | CC[C@@H](CO)NC(=O)c1c(-c2ccsc2)nc2c(C(=O)NCc3ccc4nc(N)sc4c3)cccn12 [Compound 13] |
| 9 to 50 | 4 to 46 | – | – | CC(C)C[C@@H](CO)NC(=O)c1c(-c2ccsc2)nc2c(C(=O)NCc3ccc4ncccc4c3)cccn12 [Compound 115] |
| – | – | 6 to 100 nM | – | CC(C)C[C@@H](CO)NC(=O)c1c(-c2ccsc2)nc2c(NC(=O)Cc3ccc4c(c3)OCO4)cccn12 [Compound 664] |
| – | – | 6 to 100 nM | – | CC(C)C[C@@H](CO)NC(=O)c1c(-c2ccsc2)nc2c(C(=O)NCc3cnn(-c4cccc(C(F)(F)F)c4)c3)cccn12 [Compound 224] |
| – | – | 6 to 100 nM | – | CC(C)C[C@@H](CO)NC(=O)c1cnc2c(C(=O)NCc3ccc4nc(N)sc4c3)cccn12 [Compound 543] |
| – | – | 6 to 100 nM and 6 to 20 nM | – | CC(C)C[C@@H](CO)NC(=O)c1c(-c2ccccn2)nc2c(C(=O)NCc3ccc(N4CCCC4=O)cc3)cccn12 [Compound 485] |
| – | – | 6 to 100 nM and 6 to 20 nM and 6 to 10 nM | – | CC(C)C[C@@H](CO)NC(=O)c1c(-c2ccccn2)nc2c(C(=O)NCc3ccc4[nH]ncc4c3)cccn12 [Compound 502] |
| 54 to 98 | 107 to 173 | – | – | C[C@@H](NC(=O)c1c(-c2ccsc2)nc2c(C(=O)NCc3ccc4nc(N)sc4c3)cccn12)[C@@H](O)c1ccccc1 [Compound 62] |
| – | – | 6 to 100 nM | – | CCc1nc2c(C(=O)NCc3ccc(S(C)(=O)=O)cc3)cccn2c1C(=O)N[C@H](CO)CC(C)C [Compound 457] |
| 54 to 98 | 52 to 94 | – | – | CC(C)C[C@@H](CO)NC(=O)c1c(-c2ccsc2)nc2c(C(=O)NCc3ccc4ncsc4c3)cccn12 [Compound 113] |
| – | – | 6 to 100 nM and 6 to 20 nM | – | CC(C)C[C@@H](CO)NC(=O)c1c(-c2ccccn2)nc2c(C(=O)NCc3cnn(-c4ccc(S(C)(=O)=O)cc4)c3)cccn12 [Compound 491] |
| – | – | 6 to 100 nM | – | Nc1nc2ccc(CNC(=O)c3cccn4c(C(=O)N[C@@H]5c6ccccc6C[C@@H]5O)c(-c5ccsc5)nc34)cc2s1 [Compound 279] |
| 54 to 98 | 52 to 94 | – | – | CC(C)C[C@H](CO)NC(=O)c1c(-c2ccsc2)nc2c(C(=O)NCc3ccc(S(C)(=O)=O)cc3)cccn12 [Compound 205] |
| 118 to 174 | 52 to 94 | – | – | C[C@@H](NC(=O)c1c(-c2ccsc2)nc2c(C(=O)NCc3ccc4nc(N)sc4c3)cccn12)c1ccccc1 [Compound 42] |
| – | – | 6 to 100 nM | – | CCc1nc2c(C(=O)NCc3ccc4[nH]ncc4c3)cccn2c1C(=O)N[C@H](CO)CC(C)C [Compound 471] |
| – | – | 6 to 100 nM and 6 to 20 nM | – | Cc1nc2c(C(=O)NCc3ccc4nc(N)sc4c3)cccn2c1C(=O)N[C@H](CO)CC(C)C [Compound 598] |
| 54 to 98 | 52 to 94 | – | – | CC(C)C[C@@H](CO)NC(=O)c1c(-c2ccsc2)nc2c(C(=O)NCc3ccc4nc[nH]c4c3)cccn12 [Compound 111] |
| – | 1070 to 11500 | – | – | Cc1cc(C(=O)NCc2ccc3nc(N)sc3c2)c2nc(C)c(C(=O)N[C@H](CO)CC(C)C)n2c1 [Compound 351] |
| – | – | 6 to 100 nM | – | CC(C)C[C@@H](CO)NC(=O)c1c(-c2ccsc2)nc2c(C(=O)NCc3ccc(C(F)(F)F)nc3)cccn12 [Compound 209] |
| – | – | 6 to 100 nM | – | CC(C)C[C@@H](CO)NC(=O)c1c(-c2cccnc2)nc2c(C(=O)NCc3ccc4nc(N)sc4c3)cccn12 [Compound 405] |
| – | – | 6 to 100 nM | – | CC(C)C[C@@H](CO)NC(=O)c1c(-c2ccsc2)nc2c(C(=O)NCc3ccc(NC4CCCC4)nc3)cccn12 [Compound 292] |
| 118 to 174 | 107 to 173 | – | – | C[C@H](CO)NC(=O)c1c(-c2ccsc2)nc2c(C(=O)NCc3ccc4nc(N)sc4c3)cccn12 [Compound 23] |
| – | – | 6 to 20 nM | – | CNc1nc2ccc(CNC(=O)c3cccn4c(C(=O)N[C@H](CO)CC(C)C)c(-c5ccccn5)nc34)cc2s1 [Compound 156] |
| 118 to 174 | 201 to 666 | – | – | CC[C@@H](CO)NC(=O)c1c(-c2ccsc2)nc2c(C(=O)NCc3ccc(Cl)nc3)cccn12 [Compound 181] |
